Measurements as given in patent US9498546B2, “Synthesis and application of novel imaging agents conjugated to DPA 713 analogs for imaging inflammation” (THE JOHNS HOPKINS UNIVERSITY, priority 2012, dated 2016).
Entries after “also recorded” stand apart in the source; their conditions may differ.

Key:
[1] = test system: LPS-stimulated J774 macrophages (TSPO); experiment: In vitro J774 murine macrophage uptake studies (fluorescence microscopy, with or without blocking); type: cell-based
Experimental: FIG. 4 is a series of photomicrographs (A-I) of J774 macrophages that were cultured in 8 well chamber slides to 80% confluence. LPS was then added to each well for 24 hours to stimulate the cells. […] The cells were returned to the incubator for either 1 hour or 24 hours. The solutions were then removed, the nuclei were labeled with Hoechst 33342 and the cells were briefly washed before mounting and viewing under a fluorescence microscope.
In vitro J774 murine macrophage uptake studies. The immortalized J774 murine macrophage-like cell line was cultured in RPMI1640+20% FBS+1% penicillin+ streptomycin media in 8-well chamber slides (Fisher Scientific) to approximately 80% confluence. The cells were then stimulated with 1 ng/mL of LPS (Sigma, E. coli 055:B5) for 24 hours prior to addition of the probes of the present invention to 40 nM final concentration. […] The cells were exposed to the fluorescent probes and blocking compounds for either 1 hour or 24 hours prior to exposing to 1 ng/mL of Hoechst 33342 dye (Invitrogen), followed by washing twice briefly with PBS, pH 7.5. The chambers were then removed and the slide mounted with Dako Cytomation aqueous mounting media and a glass coverslip. The cells were visualized using a Nikon 80i upright epifluorescence microscope equipped with a Nikon DS-QilMc darkfield CCD camera and processed using Nikon Image Software on an adjacent workstation. The dyes were excited using either a Nikon Intensilight C-HGFI lamp (IRDye680 and Hoechst) or a Sutter Instruments Co. (Novato, Calif.) LB/LB-30 xenon lamp (IRDye800).
J774 Cell Uptake Studies. J774 macrophages were cultured in 8 well chamber slides to 80% confluence. LPS was then added to each well for 24 hours to stimulate the cells. […] The cells were returned to the incubator for either 1 hour or 24 hours. The solutions were then removed, the nuclei were labeled with Hoechst 33342 and the cells were briefly washed before mounting and viewing under a fluorescence microscope. […] The tracer localization for both analogs is perinuclear and granular in appearance and is consistent with the gross distribution pattern of TSPO expression in other mononuclear cell-derived lines.

[2] = test system: CD68+ macrophages in PC-3 PIP and PC-3 flu xenografts; experiment: Ex vivo fluorescence microscopy of PC-3 PIP and PC-3 flu xenografts; type: in vivo, mice
Experimental: FIG. 8 is a series of photomicrographs showing ex vivo fluorescence microscopy of DPA-713-IRDye680LT in PC-3 PIP and PC-3 flu xenografts at 24 hours post-injection. […] A & B. PIP tumor DPA-713-IRDye680LT only; C.
(§1) Ex vivo DPA-713-IRDye680LT microscopy. The mice used in the in vivo NIRF studies (PC-3 analog xenografts and MDA-MB-231 analog xenografts) were sacrificed at the end of their studies and their tumors were collected and frozen on dry ice for cryosectioning to 20 microns on charged glass slides (VWR). The sections were then probed with both anti-TSPO Ab (Novus Biologicals NBP1-45769, 1:70) labeled directly with Lissamine sulfonyl chloride (Aldrich) according to the known method and anti-CD68 Ab (Abcam ab53444, 1:40) and lastly with Hoechst 33342 (Invitrogen, 1 ng/mL). Both antibodies were added simultaneously in a 10% FBS in PBS solution applied directly to the freshly thawed sections and allowed to sit at room temperature for 1 hour. The sections were washed twice at room temperature for 5 minutes each with PBS prior to the addition of sheep-anti-rat-FITC (Abcam ab6848-1, 1:250) in PBS at room temperature for 30 minutes. The secondary antibody solution was removed and the slides were bathed in Hoechst solution (PBS) for 1.5 minutes at room temperature before being washed twice as before with PBS. The slides were then mounted in Dako Cytomation aqueous mounting media with a glass coverslip and viewed 30 minutes later using a Nikon 80i upright epifluorescence microscope equipped with a Nikon DS-QilMc darkfield CCD camera and excited by a Nikon Intensilight C-HGFI lamp. All images are recorded and processed using Nikon Imaging Software Elements.
FIG. 9 depicts a series of NIRF image showing in vivo, ex vivo and in vitro binding of DPA-713-IRDye800CW to androgen sensitive (TSPO−) LNCaP (9E), androgen insensitive (TSPO+) PC-3 prostate xenografts and TSPO+ subcutaneous and orthotopic U87 GBM xenografts.

[3] = test system: CD68+ macrophages in MDA-MB-231 xenografts; experiment: Ex vivo fluorescence microscopy of MDA-MB-231 xenografts; type: in vivo, mice; settings: 24 hours post-injection
Experimental: FIG. 6 is a series of photomicrographs of ex vivo fluorescence microscopy of DPA-713-IRDye680LT in MDA-MB-231 xenografts at 24 hours post-injection.
as §1, with “The slides were then mounted in Dako Cytomation aqueous mounting media with a glass coverslip and viewed 30 minutes later using a Nikon 80i upright epifluorescence microscope equipped with a Nikon DS-QilMc darkfield CCD camera and excited by a Nikon Intensilight C-HGFI lamp.” left out, “Elements. […]” for “Elements.”

CCN(CC)C(=O)Cc1c(-c2ccc(OCCNC(=O)CCCCc3cccc(C(=C\C=C4/N(CCCS(=O)(=O)O)c5ccc6c(S(=O)(=O)O)cc(S(=O)(=O)O)cc6c5C4(C)C)/C=C/C4=[N+](CCCS(=O)(=O)[O-])c5ccc6c(S(=O)(=O)O)cc(S(=O)(=O)O)cc6c5C4(C)C)c3)cc2)nn2c(C)cc(C)nc12 [DPA-713-IRDye680LT, 3-(2-((1E,3Z,5Z)-3-(3-(5-(2-(4-(3-(2-(diethylamino)-2-oxoethyl)-5,7-dimethylpyrazolo[1,5-a]pyrimidin-2-yl)phenoxy)ethylamino)-5-oxopentyl)phenyl)-5-(1,1-dimethyl-6,8-disulfo-3-(3-sulfopropyl)-1Hbenzo[e]indol-2(3H)-ylidene)penta-1,3-dienyl)-1,1-dimethyl-6,8-disulfo-1H-benzo[e]indolium-3-yl)propane-1-sulfonate]
Blocking of tracer uptake by (R,S)-PK11195 ([1]; 40 nM tracer + 1 μM (R,S)-PK11195, 24 hours): no longer blocked | Blocking of tracer uptake by (R,S)-PK11195 ([1]; 40 nM tracer + 1 μM unlabeled (R,S)-PK11195, 1 hour): widespread although incomplete blocking | Blocking of tracer uptake by unlabeled DPA-713 ([1]; 40 nM tracer + 1 μM unlabeled DPA-713, 1 hour): partial but incomplete blocking | Cell-specific accumulation of probe in prostate tumor xenografts ([2]; 24 hours of in vivo biodistribution): accumulated specifically within CD68+ macrophages | Probe accumulation, PC-3 PIP compared with PC-3 flu xenografts ([2]; 24 hours post-injection): PC-3 PIPs accumulate more | Blocking of probe accumulation by unlabeled DPA-713 ([2]; co-injection with 20 mg/kg unlabeled DPA-713, 24 hours post-injection): accumulation is blocked | Cell-specific localization of probe in xenograft sections [3]: selectively retained by CD68-expressing macrophages; also recorded: sequestered within CD68+ macrophages
